Experimental data as given in patent US9604945B2, “Sydnonimines-specific dopamine reuptake inhibitors and their use in treating dopamine related disorders” (priority 2007, dated 2017).

Experiments:
[1] = target: Norepinephrine Transporter (Human Recombinant) (Homo sapiens (Human), UniProt P23975); assay: Norepinephrine transporter (human recombinant) binding assay, [3H]-Nisoxetine; settings: read-out: INH at 10 μM NET
Description: II: Norepinephrine Transporter (Human Recombinant) Binding Assay • This assay was carried out in accordance with the procedure described by Raisman, R, et al. Eur. Jrnl. Pharmacol. 78: 345-351 (1982) with modifications. See also, Langer, S., et al., Eur. Jrnl. Pharmacol, 72: 423-4 (1981). Tissue Preparation • 1. hrNET (Receptor Biology; RBNET) is diluted in assay buffer to 2.5 microunits/ml, so that each tube receives 0.5 microunits, or 2 microunits/ml. • NOTE: 100 microassays, add 20 mis of buffer. Binding Reaction • 1. Each tube receives the following components: • 25 ul drug or vehicle • 25 ul [^3H]-Nisoxetine • 200 ul tissue suspension. • 2. Initiate binding reaction with the addition of tissue, and incubate at room temperature for 1 hour. • 3. Terminate binding reaction by rapid filtration of tube contents onto 0.1% PEI treated GF/C filters (TopCount). • 4. Rinse the assay tubes once with ice cold 50 mM NaCl, then rapidly rinse the filters with 6×1 ml/tube of the same wash buffer. • 5. Radioactivity trapped onto the filters is assessed using liquid scintillation spectrophotometer after soaking the filters for at least 1 hour in scintillation cocktail. Materials and Reagents • 1. The receptor source is human recombinant/CHO. • 2. [^3H]-Nisoxetine, diluted to a concentration of 10 nM in assay buffer, is used as the radioligand. Thus, the final ligand concentration is 1 nM. • 3. Non specific binding is defined as that remaining in the presence of 1×10^−6M desipramine (MW=302.8) (Make fresh: in bag with dessicating rocks 1, dissolves in water 1E-3). • 4. The reference compound for the assay is desipramine. Desimpramine is run at following final concentrations: • 1×10^−10, 2×10^−10, 5×10^−10, 1×10^−9, 2×10^−9, 5×10^−9, 1×10^−8, 2×10^−8, 5×10^−8, 1×10^−7, 2×10^−7, 5×10^−7M • 5. The positive control is any of the above run at the final concentrations of: • 1×10^−9, 5×10^−9, 2×10^−8 M. • 6. The Kd for the receptor is 3 nM. Buffers

[2] = target: dopamine transporter (DAT) (Cavia porcellus, UniProt H0WCX4); assay: Dopamine transporter binding assay [3H]WIN 35,428; set-up: species or system Guinea Pig; settings: for inhibition at 10 µM: read-out: INH at 10 μM DAT
Chain of dopamine transporter (DAT) (H0WCX4 1-619): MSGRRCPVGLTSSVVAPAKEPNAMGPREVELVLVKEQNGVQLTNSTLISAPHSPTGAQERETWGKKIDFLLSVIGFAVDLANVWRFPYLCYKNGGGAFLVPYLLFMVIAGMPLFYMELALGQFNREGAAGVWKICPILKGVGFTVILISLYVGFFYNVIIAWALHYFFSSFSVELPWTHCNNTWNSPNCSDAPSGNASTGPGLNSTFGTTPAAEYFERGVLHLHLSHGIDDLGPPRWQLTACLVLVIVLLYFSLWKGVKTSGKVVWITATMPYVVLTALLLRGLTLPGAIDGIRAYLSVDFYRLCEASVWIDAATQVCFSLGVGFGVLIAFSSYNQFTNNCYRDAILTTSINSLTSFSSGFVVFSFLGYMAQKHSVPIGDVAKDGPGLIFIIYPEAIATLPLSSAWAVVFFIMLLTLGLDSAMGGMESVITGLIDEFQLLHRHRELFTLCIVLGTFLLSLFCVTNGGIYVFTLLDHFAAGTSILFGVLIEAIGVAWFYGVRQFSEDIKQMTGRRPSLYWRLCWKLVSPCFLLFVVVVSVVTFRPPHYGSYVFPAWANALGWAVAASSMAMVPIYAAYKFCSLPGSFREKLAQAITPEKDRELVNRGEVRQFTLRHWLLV
Description: DAT inhibition activity was tested according to the procedure described by J. Javitz et al., Mol. Pharmacol., 26: 35-44 (1984). The test results for a number of representative compounds of the invention are reported hereinbelow.
I. Dopamine Transporter Binding Assay [3H]WIN 35,428
• This assay was carried out according to the procedure described by Javitch, J. J. et al., Mol. Pharmacol. 26: 35-44; 1984
A. Tissue Preparation (Prepare all Solutions on Ice) • 1. Thaw frozen brains from male Guinea Pigs (in assay buffer) and place in 50 mM TRIS-HCl (pH 7.4 at 25° C. with 120 mM NaCl). Isolate striatum. • 2. Use a Polytron to homogenize tissue in 20 vols. (w/v) of 50 mM Tris-HCl (pH 7.4 at 25° C. with 120 mM NaCl). • 3. Centrifuge homogenate at 48,400×g for approximately 10 minutes at 4° C. Discard supernatant. • 4. Wash pellet an additional time as described in steps 2 and 3. • 5. Store pellet on ice until needed for binding assay. • 6. Using a Polytron (setting 5; approximately 10 seconds) resuspend pellet in 50 mM Tris-HCl (pH 7.4 at 25° C. with 120 mM NaCl) to an initial concentration of 10 mg/ml (original wet weight), such that the final concentration is 8 mg/ml or 4.0 mg tissue/tube.
B. Binding Reaction • 1. Each tube receives the following components: • 50 ul drug or vehicle • 50 ul [3H]-WIN 35,428 • 400 ul tissue suspension. • 2. Initiate binding reaction with the addition of tissue, and incubate for 120 minutes at 0° C. (on ice). • 3. Terminate binding reaction by rapid filtration of tube contents onto untreated Whatman GF/C filters. • 4. Rinse the assay tubes once with ice cold 50 mM TRIS HCl (pH 7.4 at 25° C. with 120 mM NaCl, BSA), then rapidly rinse the filters with 6×1 mls/tube of the same wash buffer. • 5. Radioactivity trapped onto the filters is assessed using LSM machine. Let sit for 3 hours in scint cocktail.
C. Dopamine Tranasporter Binding Assay
Materials and Reagents • 1. [3H]-WIN 35-428 is diluted to a concentration of 60 nM in 50 mM TRIS HCl (pH 7.4 at 25° C. with 120 mM NaCl). Thus, the final ligand concentration is 6 nM. • 2. Non-specific binding is defined as that remaining in the presence of 1×10^-6 M GBR12909 (room temperature cabinet). GBR12909 MW=523.5 g/mol. Will solubilize in 4% DMSO (sonicate 15 minutes). Aliquots can be used (1E-3). • 3. The reference compound for the assay is GBR12909 and is diluted in 4% DMSO and is then run at the following final concentrations: 1×10^−10, 5×10^−10, 2×10^−9, 5×10^−9, 1×10^−8, 2×10^−8, 5×10^−8, 1×10^−7, 2×10^−7, 5×10^−7, 1×10^−6, 5×10^−6. • 4. The positive control GBR12909 and is run at the final concentrations of: 2×10-8, 1×10^−7, 5×10^−7M. • 5. The Kd for the receptor is 28.0 nM. Buffers

[3] = Plasma drug concentration by different routes of administration; type: in vivo, C57BL/6 mice; settings: for Plasma Concentration: time 0 (pre-dose); for concentration at 5 min / concentration at 15 min / concentration at 30 min / concentration at 60 min / concentration at 120 min / concentration at 240 min / concentration at 480 min: C57BL/6, mouse, plasma
Description: The following materials and methods are provided to facilitate the practice of Example 9, in which drug concentration in certain biological samples were assessed using different routes of administration.
Parameters Used in Dosing and Drug Administration of the Compound of Example 3:
Adult C57BL/6 mice (preferred 16 weeks old).
Three mice per time point. If all three routes are conducted in same day, one group of pre-dose is efficient.
In the studies using adult C57BL/6 mice (preferably approximately 16 weeks old), dosing and drug administration parameters for the compound of Example 3 were explored. Clearly, the compound is suitable for oral administration and lasts in the plasma up to 2-3 hours.

Structure (SMILES): O=C(/N=c1\[cH-][n+](CCCc2ccccc2)no1)Nc1ccccc1 [Example 6, N-phenylcarbamoyl-3-(phenylpropyl)-sydnonimine]
- inhibition at 10 µM [1]: 1.44%
- Ki [2]: 25 nM
- inhibition at 10 µM [2]: 96%
- Oral bioavailability compared to Example 3 ([3]; oral, 10 and 30 mg/kg, FIG. 3): relatively higher oral bioavailability
- Bioavailability in the plasma and brain compared to Example 3 ([3]; same dosage, different routes, FIGS. 2A-2D): slightly better bioavailability

Structure (SMILES): Cc1ccc(C[n+]2[cH-]/c(=N\C(=O)Nc3ccccc3)on2)cc1 [Example 3, N-phenylcarbamoyl-3-(p-methyl-benzyl)-sydnonimine]
- inhibition at 10 µM [1]: 14%
- Ki [2]: 0.19 nM
- inhibition at 10 µM [2]: 94%
- Plasma Concentration ([3]; 10 mg/kg (IP)): 21.00 ng/mL
- Plasma Concentration ([3]; 10 mg/kg (IV)): 18.33 ng/mL
- Plasma Concentration ([3]; 10 mg/kg (PO)): 10.60 ng/mL
- Plasma Concentration ([3]; 30 mg/kg (PO)): 8.93 ng/mL
- concentration at 5 min ([3]; intraperitoneal, 10 mg/kg (IP)): 973 ng/mL
- concentration at 15 min ([3]; intraperitoneal, 10 mg/kg (IP)): 316 ng/mL
- concentration at 30 min ([3]; intraperitoneal, 10 mg/kg (IP)): 544 ng/mL
- concentration at 60 min ([3]; intraperitoneal, 10 mg/kg (IP)): 115 ng/mL
- concentration at 120 min ([3]; intraperitoneal, 10 mg/kg (IP)): 82.5 ng/mL
- concentration at 240 min ([3]; intraperitoneal, 10 mg/kg (IP)): 34 ng/mL
- concentration at 480 min ([3]; intraperitoneal, 10 mg/kg (IP)): 31.2 ng/mL
- concentration at 5 min ([3]; 10 mg/kg (IV)): 2090 ng/mL
- concentration at 15 min ([3]; 10 mg/kg (IV)): 2110 ng/mL
- concentration at 30 min ([3]; 10 mg/kg (IV)): 915 ng/mL
- concentration at 60 min ([3]; 10 mg/kg (IV)): 417 ng/mL
- concentration at 120 min ([3]; 10 mg/kg (IV)): 139 ng/mL
- concentration at 240 min ([3]; 10 mg/kg (IV)): 47.4 ng/mL
- concentration at 480 min ([3]; 10 mg/kg (IV)): 94.6 ng/mL
- concentration at 5 min ([3]; 10 mg/kg (PO)): 218 ng/mL
- concentration at 15 min ([3]; 10 mg/kg (PO)): 115 ng/mL
- concentration at 30 min ([3]; 10 mg/kg (PO)): 59.9 ng/mL
- concentration at 60 min ([3]; 10 mg/kg (PO)): 21.3 ng/mL
- concentration at 120 min ([3]; 10 mg/kg (PO)): 17.6 ng/mL
- concentration at 240 min ([3]; 10 mg/kg (PO)): 15.8 ng/mL
- concentration at 480 min ([3]; 10 mg/kg (PO)): 14.3 ng/mL
- concentration at 5 min ([3]; 30 mg/kg (PO)): 838 ng/mL
- concentration at 15 min ([3]; 30 mg/kg (PO)): 670 ng/mL
- concentration at 30 min ([3]; 30 mg/kg (PO)): 375 ng/mL
- concentration at 60 min ([3]; 30 mg/kg (PO)): 114 ng/mL
- concentration at 120 min ([3]; 30 mg/kg (PO)): 41.9 ng/mL
- concentration at 240 min ([3]; 30 mg/kg (PO)): 48.5 ng/mL
- concentration at 480 min ([3]; 30 mg/kg (PO)): 13.4 ng/mL
- Time the compound lasts in the plasma ([3]; mouse, in vivo): 2 to 3 h
